Experiments:
β-amyloid plaques = assay: MRI (7 Tesla, T2W/T1W) of post-mortem brain with thioflavin S histologic correlation after IV injection of probe in mice; format: in vivo, APP-PS1 transgenic mice; conditions: for T1 plaque enhancement on T1W images / accelerated T2 relaxation on T2W images: APP-PS1 transgenic mouse, four hours
[1] = tested on: amyloid deposits in AD temporal lobe cortex sections; assay: Labeling of amyloid deposits in vitro in AD temporal lobe cortex sections (film and emulsion autoradiography); format: binding, human; conditions: for specificity of binding for type of amyloid deposit: AD temporal lobe cortex sections in vitro
Method: The sections were washed with TBS, pH 7.0 four times and then rinsed briefly with distilled water twice. The sections were allowed to air dry overnight in a box with desiccant at 4° C.
Sections then underwent immunohistochemistry (IH) for amyloid using an anti-Aβ monoclonal mouse antibody (4G8, Senetek). Untreated sections were included as a positive control for antibody staining. After rehydrating with TBS, pH 7.6, the sections were fixed briefly with neutral-buffered, 10% formalin for 3 minutes. The sections were washed with TBS and then blocked with 1.5% normal horse serum in TBS for 30 minutes. The sections were incubated with the anti-Aβ primary antibody at a dilution of 1:1000 in 0.1% BSA/TBS overnight at 4° C. The primary antibody was then visualized using a Vectastain Elite ABC, immunoperoxidase kit with diaminobenzidine (DAB) as a substrate according to the instructions (Vector Laboratories). The sections were allowed to air dry overnight in a box with desiccant at 4° C.
FIGS. 2A-2B are the film autoradiographs. Note the presence of punctate areas of exposed film located predominantly in the regions corresponding to gray matter. This is similar to the distribution of amyloid deposits seen following IH of the tissue sections. It was possible to overlay the two for direct correspondence under the microscope.
In order to definitively correlate the IH with the iodinated peptide by colocalization, the sections were next dipped in an autoradiographic emulsion (Type NTB-3, Kodak). The slides were dipped in emulsion at 43° C. under Safelight illumination in a darkroom. The slides were chilled to solidify the emulsion and then allowed to air dry at room temperature for 3 hours in a light-proof box. The slides were exposed at 4° C. in a light-proof box with desiccant. The slides were developed with Dektol developer (Kodak) and fixed (Kodak) according to the instructions. The sections were dehydrated with successive changes of ethanol and xylene and then coverslipped with a xylene-based mounting media (CMS).

[2] = tested on: parenchymal amyloid deposits; assay: Labeling of amyloid deposits in vivo after i.v. injection in APP, PS1 transgenic mice; conditions: 200 μg i.v., four hours, emulsion autoradiography, PS1 transgenic mice 27 weeks of age
Sequence of parenchymal amyloid deposits (P05067 672-711 limits assumed): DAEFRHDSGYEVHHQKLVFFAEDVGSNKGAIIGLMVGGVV
Source text: These mice develop amyloid deposits and behavioral deficits within 12 weeks of age. Hemizygous transgenic mice (Tg2576) expressing mutant human amyloid precursor protein (APP695) were mated with a second strain of hemizygous transgenic mice (M146L5.1) expressing mutant human presenilin 1 (PS1). Holcomb, L., et al., Nature Med. 4:97-100 (1998). The animals were genotyped for the expression of both transgenes by a dot blot method using a sample of mouse tail DNA. The mice were housed in a virus-free barrier facility under a 12-hour light/dark cycle, with ad lib access to food and water.
After four hours, each animal was perfused with PBS and fixed with neutral-buffered, 10% formalin following an overdose with sodium pentobarbital (75 mg/kg, i.p.). After cryoprotecting in 10% and 30% sucrose in PBS, frozen sections of each brain were cut with a freezing microtome and then processed with anti-Aβ IH and emulsion autoradiography for the presence of radiolabeled amyloid deposits using the same methods described above for the human AD sections.

[3] = in vivo, iv; cited from earlier work
[4] = tested on: β-amyloid plaques in human AD brain sections; assay: Labeling of AD amyloid plaques in vitro with putrescine- and gadolinium-labeled Aβ; format: binding; conditions: equal amounts of radioactivity
Source text: Labeling of AD Amyloid Plaques In Vitro with Putrescine- and Gadolinium-Labeled Aβ. […] The slides were dipped in emulsion, exposed, and developed according to the instructions. The sections were dehydrated with successive changes of ethanol and xylene and then coverslipped.

BBB [5] = conditions: mouse, in vivo
Method: PS and Vp Determination in Mice. […] Blood was sampled from the femoral artery at several intervals during the next 15 minutes. Whole blood was sampled directly, using heparinized micro-hematocrit capillary tubes and TCA extracted. The supernatant was separated from the pellet and both were counted in a gamma counter. The radioactivity in the pellet was expressed as a percentage of the total radioactivity found in both the pellet and supernatant. An aliquot of the peptide labeled with ^131I was then injected into the femoral vein 15 seconds prior to sacrifice of the animal to serve as a measure of residual plasma volume (Vp; μl/g). After collection of the final blood sample, the anesthetized animal was sacrificed. […] The permeability coefficient x surface area products (PS; 10^−6 ml/g/s) were then calculated using the Vp as a measure of residual plasma volume based on equations that have been discussed in detail elsewhere (Poduslo and Curran, supra (1996a); Poduslo and Curran, supra (1996b); Wengenack, et al., supra (1997); Poduslo, et al., supra (1998); Poduslo, et al., supra (2000); Poduslo, et al., supra (2001). Statistical evaluations of PS and Vp were performed using ANOVA followed by Bonferroni multiple comparisons.

BBB [6] = format: in vivo, Sprague-Dawley rats; conditions: rat
Method: Poduslo, J. F. and Curran, G. L., Proc. Natl. Acad. Sci. USA 89:2218-2222 (1992); Poduslo, J. F. and Curran, G. L., Molec. Brain Res. 23:157-162 (1994); and Poduslo, J. F., et al., Proc. Natl. Acad. Sci. USA 9:5705-5709 (1994). Putrescine modification of synthetic human Aβ1-40 was performed by covalent linkage of the polyamine to carboxylic acid groups using carbodiimide at a pH of 6.7. Poduslo, J. F. and Curran, G. L., J. Neurochem. 66:1599-1609 (1996); and Poduslo, J. F. and Curran, G. L., J. Neurochem.
PS and Vp values were determined in normal adult male Sprague-Dawley rats (400-450 g) obtained from Harlan. […] Blood (200 μl) was sampled from the brachial artery at several intervals during the next 15 minutes.

Compound | T1 plaque enhancement on T1W images (β-amyloid plaques; IV injection) | accelerated T2 relaxation on T2W images (β-amyloid plaques; IV injection) | labeling of parenchymal amyloid deposits in vivo [2] | amount of radiolabeled peptide present in PBS-perfused brain [3] | specificity of binding for type of amyloid deposit [1] | exposure time required for detection of plaque binding (emulsion autoradiography) [4] | other results
O=C([O-])CN(CCN(CC(=O)[O-])CC(=O)O)CCN(CC(=O)[O-])CC(=O)O.[Gd+3] [Gd-DTPA, gadolinium diethylenetriaminepentaacetic acid, reference compound] | No evidence of T1 plaque enhancement | expected focal areas of T2 acceleration that corresponded to plaques |  |  |  |  | 
NCCCCN [putrescine, reference compound] |  |  |  |  |  |  | effect of unbound putrescine on binding of iodinated peptide to amyloid deposits ([1]; 10-fold excess unbound putrescine, 100 pM 125I-Aβ1-40 or 125I-PUT-Aβ1-40): no appreciable effect on binding of iodinated peptide
Aβ 1-40: synthetic human amyloid β peptide 1-40, native (unmodified); radioiodinated for the measurements [reference compound] |  |  | did not exhibit labeling of any parenchymal amyloid deposits | 0.03% | specific for dense-core, neuritic-type amyloid deposits |  | 
Gd-Aβ: Aβ (1-40) with DTPA chelating arm at the amino terminus, chelated with gadolinium; Aβ to Gd 1:1 | no significant plaque enhancement | accelerated T2 relaxation was observed in plaques |  |  |  | nine | effect of gadolinium labeling of Aβ on the PS value (BBB [5]): decrease in the PS value in five of the six brain regions, however, this was of non-significant magnitude
PUT Aβ 1-40: synthetic human Aβ1-40 with putrescine covalently linked to carboxylic acid groups using carbodiimide; radioiodinated for the measurements |  |  | able to cross the BBB and bind to amyloid deposits in vivo | 0.35% | specific for dense-core, neuritic-type amyloid deposits |  | increase of permeability at the blood brain barrier by putrescine modification (BBB [6]): two-fold; density of exposed silver grains on amyloid deposits (emulsion autoradiography) ([1]; equal amounts of radioactivity and exposure time (6 days), versus 125I-Aβ1-40): higher density of silver grains
putrescine-gadolinium-amyloid-β peptide [PUT-Gd-Aβ] | many focal areas of accelerated T1 relaxation visible as bright spots | Numerous focal areas of accelerated T2 relaxation |  |  |  | one | T1 CNR (contrast-to-noise ratio) (β-amyloid plaques; APP-PS1 mice, IV injection, T1W MRI, mean ± SEM, n = 15 plaques): 7.13 ± 1.03; T1 PBR (plaque-to-background voxel intensity ratio) (β-amyloid plaques; APP-PS1 mice, IV injection, T1W MRI, mean ± SEM, n = 15 plaques, maximum intensity): 1.24 ± 0.04; T2 CNR (contrast-to-noise ratio) (β-amyloid plaques; APP-PS1 mice, IV injection, T2W MRI, mean ± SEM, n = 15 plaques): −8.95; T2 PBR (plaque-to-background voxel intensity ratio) (β-amyloid plaques; APP-PS1 mice, IV injection, T2W MRI, mean ± SEM, n = 15 plaques, minimum intensity): 0.29 ± 0.03; fold increase of T1 CNR in injected mice (β-amyloid plaques; APP-PS1 mice, T1 images): 4.2-9.4 fold; fold increase of T1 PBR in injected mice (β-amyloid plaques; APP-PS1 mice, T1 images): 1.2 fold; cortical tissue volume occupied by enhanced plaque (β-amyloid plaques; APP-PS1 mouse, T1W, interpretation of pixel proportion): roughly 10%; proportion of pixels within cortical ROI whose intensity exceeded the 4-S.D. threshold (β-amyloid plaques; APP-PS1 mouse, T1W, mean (±S.D.) across 10 images, 812.5×812.5 μm ROI): 9.9%; MRI features in non-transgenic mouse (focal areas of accelerated T1 relaxation) (β-amyloid plaques; non-transgenic mouse, compared with PBS-injected non-transgenic mouse (no focal T1 areas)): yielded the same results
